# Like-named read-outs stand apart in the source and are kept apart here.
# What was measured:
# [1] = system: human multiple myeloma cell line, OPM-2; assay: Cell viability assay (OPM-2 10 FBS), CellTiter-Glo; assay type: cell-based
# In short: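 OPM-2 cells at 3000 cells/well in RPMI 1640 with 10% FBS were exposed to serially diluted compounds for 16 h at 37 °C, 5% CO2.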
# [2] = molecular target: recombinant human Mcl-1 (residues 171-327) / Bim interaction (Homo sapiens (Human), UniProt Q07820); assay: biochemical; assay type: binding; settings: 0.1 nM Mcl-1(171-327), 0.05 nM biotin-Bim (51-76); read-out: Mcl-1 HTRF IC50
# [3] = Homo sapiens, OPM-2, 16 h, read-out: OPM-2 10% FBS IC50 IP, OPM-2 cells, 10% FBS, 16 h incubation
# Chain of recombinant human Mcl-1 (residues 171-327) / Bim interaction (Q07820 171-327): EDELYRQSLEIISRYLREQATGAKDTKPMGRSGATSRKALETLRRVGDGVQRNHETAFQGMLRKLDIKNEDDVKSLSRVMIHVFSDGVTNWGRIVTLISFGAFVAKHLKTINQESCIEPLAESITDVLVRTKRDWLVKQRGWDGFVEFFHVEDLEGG
SMILES,"IC50 [1, 3] [nM]",IC50 [2] [nM],"IC50 ([1]; read-out: OPM-2 10% FBS IC50 IP, OPM-2 cells, 10% FBS, 16 h incubation) [nM]"
"CO[C@]1(CN2C[C@@H](C)N[C@@H](C)C2)/C=C/C[C@H](C)[C@@H](C)S(=O)(=O)NC(=O)c2ccc3c(c2)N(C[C@@H]2CC[C@H]21)C[C@@]1(CCCc2cc(Cl)ccc21)CO3 [Example 329, (1S,3′R,6′R,7′R,8′E,11′S,12′R)-6-chloro-7′-(((3R,5S)-3,5-dimethyl-1-piperazinyl)methyl)-7′-methoxy-11′,12′-dimethyl-3,4-dihydro-2H,15′H-spiro[naphthalene-1,22′-[20]oxa[13]thia[1,14]diazatetracyclo [14.7.2.0~3,6~.0~19,24~]pentacosa[8,16,18,24]tetraen]-15′-one 13′,13′-dioxide]",243,0.137,–
"CCN1CCN(C[C@@]2(OC)/C=C/C[C@H](C)[C@@H](C)S(=O)(=O)NC(=O)c3ccc4c(c3)N(C[C@@H]3CC[C@H]32)C[C@@]2(CCCc3cc(Cl)ccc32)CO4)CC1(C)C [Example 330, (1S,3′R,6′R,7′R,8′E,11′S,12′R)-6-chloro-7′-((4-ethyl-3,3-dimethyl-1-piperazinyl)methyl)-7′-methoxy-11′,12′-dimethyl-3,4-dihydro-2H,15′H-spiro[naphthalene-1,22′-[20]oxa[13]thia[1,14]diazatetracyclo [14.7.2.0~3,6~.0~19,24~]pentacosa[8,16,18,24]tetraen]-15′-one 13′,13′-dioxide]",278,0.425,–
CO[C@@]1(CN2CCCN(C(C)C)CC2)/C=C/C[C@H](C)[C@@H](C)S(=O)(=O)NC(=O)c2ccc3c(c2)N(C[C@@H]2CC[C@H]21)C[C@@]1(CCCc2cc(Cl)ccc21)CO3 [Example 331],–,0.184,230
"COCCOCCN1CCN(C[C@]2(OC)/C=C/C[C@H](C)[C@@H](C)S(=O)(=O)NC(=O)c3ccc4c(c3)N(C[C@@H]3CC[C@H]32)C[C@@]2(CCCc3cc(Cl)ccc32)CO4)CC1 [Example 332, (1S,3′R,6′R,7′S,8′E,11′S,12′R)-6-chloro-7′-methoxy-7′-((4-(2-(2-methoxyethoxy)ethyl)-1-piperazinyl)methyl)-11′,12′-dimethyl-3,4-dihydro-2H,15′H-spiro[naphthalene-1,22′-[20]oxa[13]thia[1,14]diazatetracyclo [14.7.2.0~3,6~.0~19,24~]pentacosa[8,16,18,24]tetraen]-15′-one 13′,13′-dioxide]",89,0.096,–
"COCC(C)(C)N1CCN(C[C@@]2(OC)/C=C/C[C@H](C)[C@@H](C)S(=O)(=O)NC(=O)c3ccc4c(c3)N(C[C@@H]3CC[C@H]32)C[C@@]2(CCCc3cc(Cl)ccc32)CO4)CC1 [Example 333, (1S,3′R,6′R,7′R,8′E,11′S,12′R)-6-chloro-7′-methoxy-7′-((4-(2-methoxy-1,1-dimethylethyl)-1-piperazinyl)methyl)-11′,12′-dimethyl-3,4-dihydro-2H,15′H-spiro[naphthalene-1,22′-[20]oxa[13]thia[1,14]diazatetracyclo [14.7.2.0~3,6~.0~19,24~]pentacosa[8,16,18,24]tetraen]-15′-one 13′,13′-dioxide]",82,0.088,–
"COCCN1CCN(C[C@]2(OC)/C=C/C[C@H](C)[C@@H](C)S(=O)(=O)NC(=O)c3ccc4c(c3)N(C[C@@H]3CC[C@H]32)C[C@@]2(CCCc3cc(Cl)ccc32)CO4)CC1(C)C [Example 334, (1S,3′R,6′R,7′S,8′E,11′S,12′R)-6-chloro-7′-methoxy-7′-((4-(2-methoxyethyl)-3,3-dimethyl-1-piperazinyl)methyl)-11′,12′-dimethyl-3,4-dihydro-2H,15′H-spiro[naphthalene-1,22′-[20]oxa[13]thia[1,14]diazatetracyclo [14.7.2.0~3,6~.0~19,24~]pentacosa[8,16,18,24]tetraen]-15′-one 13′,13′-dioxide]",159,0.186,–
"CO[C@@]1(CN2CCN(C(C)(C)C)CC2)/C=C/C[C@H](C)[C@@H](C)S(=O)(=O)NC(=O)c2ccc3c(c2)N(C[C@@H]2CC[C@H]21)C[C@@]1(CCCc2cc(Cl)ccc21)CO3 [Example 335, (1S,3′R,6′R,7′S,8′E,11′S,12′R)-7′-((4-tert-butyl-1-piperazinyl)methyl)-6-chloro-7′-methoxy-11′,12′-dimethyl-3,4-dihydro-2H,15′H-spiro[naphthalene-1,22′-[20]oxa[13]thia[1,14]diazatetracyclo [14.7.2.0~3,6~.0~19,24~]pentacosa[8,16,18,24]tetraen]-15′-one 13′,13′-dioxide]",133,0.148,–
"CO[C@]1(CN2C[C@@H](C)N(C)[C@@H](C)C2)/C=C/C[C@H](C)[C@@H](C)S(=O)(=O)NC(=O)c2ccc3c(c2)N(C[C@@H]2CC[C@H]21)C[C@@]1(CCCc2cc(Cl)ccc21)CO3 [Example 336, (1S,3′R,6′R,7′R,8′E,11′S,12′R)-6-chloro-7′-methoxy-11′,12′-dimethyl-7′-(((3R,5S)-3,4,5-trimethyl-1-piperazinyl)methyl)-3,4-dihydro-2H,15′H-spiro[naphthalene-1,22′-[20]oxa[13]thia[1,14]diazatetracyclo [14.7.2.0~3,6~.0~19,24~]pentacosa[8,16,18,24]tetraen]-15′-one 13′,13′-dioxide]",51,0.085,–
"CO[C@]1(CN2CCN(C(C)C)[C@@H](C)C2)/C=C/C[C@H](C)[C@@H](C)S(=O)(=O)NC(=O)c2ccc3c(c2)N(C[C@@H]2CC[C@H]21)C[C@@]1(CCCc2cc(Cl)ccc21)CO3 [Example 337, (1S,3′R,6′R,7′R,8′E,11′S,12′R)-6-chloro-7′-methoxy-11′,12′-dimethyl-7′-(((3S)-3-methyl-4-(1-methylethyl)-1-piperazinyl)methyl)-3,4-dihydro-2H,15′H-spiro[naphthalene-1,22′-[20]oxa[13]thia[1′14]diazatetracyclo [14.7.2.0~3,6~.0~19,24~]pentacosa[8,16,18,24]tetraen]-15′-one 13′,13′-dioxide]",59,0.09,–
"CO[C@@]1(CN2CCN(Cc3ncccn3)CC2)/C=C/C[C@H](C)[C@@H](C)S(=O)(=O)NC(=O)c2ccc3c(c2)N(C[C@@H]2CC[C@H]21)C[C@@]1(CCCc2cc(Cl)ccc21)CO3 [Example 338, (1S,3′R,6′R,7′S,8′E,11′S,12′R)-6-chloro-7′-methoxy-11′,12′-dimethyl-7′-((4-(2-pyrimidinylmethyl)-1-piperazinyl)methyl)-3,4-dihydro-2H,15′H-spiro[naphthalene-1,22′-[20]oxa[13]thia[1,14]diazatetracyclo [14.7.2.0~3,6~.0~19,24~]pentacosa[8,16,18,24]tetraen]-15′-one 13′,13′-dioxide]",57,0.1,–
"CO[C@@]1(CN2CCN(C3CS(=O)(=O)C3)CC2)/C=C/C[C@H](C)[C@@H](C)S(=O)(=O)NC(=O)c2ccc3c(c2)N(C[C@@H]2CC[C@H]21)C[C@@]1(CCCc2cc(Cl)ccc21)CO3 [Example 339, (1S,3′R,6′R,7′S,8′E,11′S,12′R)-6-chloro-7′-((4-(1,1-dioxido-3-thietanyl)-1-piperazinyl)methyl)-7′-methoxy-11′,12′-dimethyl-3,4-dihydro-2H,15′H-spiro[naphthalene-1,22′-[20]oxa[13]thia[1,14]diazatetracyclo [14.7.2.0~3,6~.0~19,24~]pentacosa[8,16,18,24]tetraen]-15′-one 13′,13′-dioxide]",153,0.117,–
"CO[C@@]1(CN2CCN(C3COCCOC3)CC2)/C=C/C[C@H](C)[C@@H](C)S(=O)(=O)NC(=O)c2ccc3c(c2)N(C[C@@H]2CC[C@H]21)C[C@@]1(CCCc2cc(Cl)ccc21)CO3 [Example 340, (1S,3′R,6′R,7′S,8′E,11′S,12′R)-6-chloro-7′-((4-(1,4-dioxepan-6-yl)-1-piperazinyl)methyl)-7′-methoxy-11′,12′-dimethyl-3,4-dihydro-2H,15′H-spiro[naphthalene-1,22′-[20]oxa[13]thia[1,14]diazatetracyclo [14.7.2.0~3,6~.0~19,24~]pentacosa[8,16,18,24]tetraen]-15′-one 13′,13′-dioxide]",60,0.128,–
"CCN1[C@H](C)CN(C[C@@]2(OC)/C=C/C[C@H](C)[C@@H](C)S(=O)(=O)NC(=O)c3ccc4c(c3)N(C[C@@H]3CC[C@H]32)C[C@@]2(CCCc3cc(Cl)ccc32)CO4)C[C@@H]1C [Example 341, (1S,3′R,6′R,7′R,8′E,11′S,12′R)-6-chloro-7′-(((3R,5S)-4-ethyl-3,5-dimethyl-1-piperazinyl)methyl)-7′-methoxy-11′,12′-dimethyl-3,4-dihydro-2H,15′H-spiro[naphthalene-1,22′-[20]oxa[13]thia[1,14]diazatetracyclo [14.7.2.0~3,6~.0~19,24~]pentacosa[8,16,18,24]tetraen]-15′-one 13′,13′-dioxide]",42,0.052,–
"CO[C@]1(CN2CCN(C3COCCOC3)CC2)/C=C/C[C@H](C)[C@@H](C)S(=O)(=O)NC(=O)c2ccc3c(c2)N(C[C@@H]2CC[C@H]21)C[C@@]1(CCCc2cc(Cl)ccc21)CO3 [Example 342, (1S,3′R,6′R,7′R,8′E,11′S,12′R)-6-chloro-7′-((4-(1,4-piperazinyl)methyl)-7′-dioxepan-6-yl)-1-methoxy-11′,12′-dimethyl-3,4-dihydro-2H,15′H-spiro[naphthalene-1,22′-[20]oxa[13]thia[1,14]diazatetracyclo [14.7.2.0~3,6~.0~19,24~]pentacosa[8,16,18,24]tetraen]-15′-one 13′,13′-dioxide]",104,0.089,–
